The text below walks through data of US20140296263A1, “SUBSTITUTED XANTHINE DERIVATIVES” (CONCERT PHARMACEUTICALS, INC., priority 2011, published 2014).

The subject of data set [1] is MCP-1. The experiment in a line: MCP-1 assay (blood donors). Particulars: for IC50: Homo sapiens. The data set is classed as cell-based, human. From the text:
MCP-1 is a known pro-inflammatory cytokine that plays important roles in various diseases.

The test system of data set [2] is TNF-α. The experiment in a line: TNF-α inhibition assay in LPS-stimulated whole blood. The data set is classed as cell-based, human. Particulars: LPS-induced TNF-α in whole blood, potency relative to compound 401, FIG. 1. On the procedure:
Whole blood (sodium heparin vacutainer) was obtained from two normal, healthy donors from Research Blood Components, Boston, Mass. For each donor sample, two duplicate assays were performed according to the following procedure. Blood was diluted 1:1 with Opti-MEM® Reduced Serum Medium (Invitrogen) and 100 μl of diluted blood was added to wells of a 96-well plate. The test compounds were serially diluted in Opti-MEM® to create a dose-response. The resulting diluted solutions (50 μl) were then added to the wells containing diluted blood and the mixture was incubated for 15 minutes at 37° C., 5% CO2. Lipopolysaccharide (LPS) strain 113:H10 (obtained from Associates of Cape Cod #E0005) was prepared at a 4× concentration and 50 μl of 4 ng/ml solution was added to the blood to achieve a final concentration of 1 ng/ml. Control wells contained diluted blood and 100 μl Opti-MEM® (negative control) or 50 μl Opti-MEM® plus 50 μl LPS (positive control). Plates were then incubated for 24 h at 37° C., 5% CO2. After incubation, diluted plasma was harvested by centrifugation at 3000 RPM for 2 minutes to pellet the blood cells. Supernatant (diluted plasma) was then transferred into a clean 96-well plate. The diluted plasma was further diluted 1:10 with ELISA reagent diluents and the TNF-α level for each compound was measured following manufacturer's instructions for the DuoSet® ELISAs (R & D Systems). The IC50 value for the compound was calculated using commercially available statistics software and the average IC50 values from the two donors was calculated. The potency of the compound relative to the potency of compound 401 was obtained by dividing the IC50 value of compound 401 by the IC50 value of the compound.

In data set [3] the test system is reactive oxygen species (ROS). As to the kind of experiment: ROS inhibition assay in whole blood (neutrophils, DHR-123 flow cytometry). Particulars: fMLP or PMA stimulated whole blood, potency relative to compound 401, FIG. 1. The format is cell-based, human. On the procedure:
Whole blood (sodium heparin vacutainer) was obtained from two normal, healthy donors from Research Blood Components, Boston, Mass. For each donor sample, two duplicate assays were performed according to the following procedure. Whole blood (100 μl) was added to wells of a 96 deep-well plate. Compounds were serially diluted in Hanks Balanced Salt Solution (HBSS) to achieve a desired dose-response. The resulting diluted solutions (100 μl) were added to the whole blood samples, mixed gently, and incubated for 30 minutes at 37° C., 5% CO2. The blood was then stimulated by addition of Formyl-Methionyl-Leucyl-Phenylalanine (fMLP) (1 μM final concentration) or phorbol myristate acetate (PMA) (10 ng/ml final concentration) and was further incubated for 20 minutes at 37° C., 5% CO2. Dihydrorhodamine 123 (DHR-123) reagent (Invitrogen), a cell-permeable probe that becomes highly fluorescent when oxidized, was then added to the blood at a final concentration of 0.5 μM and incubated for another 20 minutes at 37° C., 5% CO2. The red blood cells were then lysed in 1 ml ammonium chloride-potassium (ACK) lysis buffer (Invitrogen) for 10 minutes at room temperature. The remaining leukocytes (including the neutrophils) were washed once in HBSS and resuspended in HBSS/0.5% paraformaldehyde. To quantify intracellular ROS production, the fluorescence of the oxidized form of DHR-123, which is a fluorescent compound, was measured. The level of oxidized DHR-123 in neutrophils was assessed for each sample by measuring cell fluorescence on a flow cytometer. The IC50 value was calculated using commercially available statistics software and the average IC50 values from the two donors was calculated. The potency of the compound relative to the potency of compound 401 was obtained by dividing the IC50 value of compound 401 by the IC50 value of the compound.

The test system of data set [4] is IFN-gamma. As to the kind of experiment: IFN-gamma assay (blood donors). The format is cell-based, human. Particulars: for IC50: Homo sapiens.
For data set [5] the following is noted: pentoxifylline and its metabolites; cited from earlier work.

Turning to `Cn1cnc2c1c(=O)n(CCCCC(O)CO)c(=O)n2C` (stereo not drawn) [Compound 308, 1-(5,6-Dihydroxyhexyl)-3,7-dimethyl-1H-purine-2,6(3H,7H)-dione], the IC50 in data set [1] (Donor 1) worked out at 194 µM; in data set [1] (Donor 2) it was 125 µM; in data set [4] (Donor I), 72 µM; in data set [4] (Donor II) it was 119 µM. Also, the “MCP-1 IC50 values compared with Compounds 400 and 401” value in data set [1] (both donors of Table 2) is listed as “slightly higher”. Besides, the “activity (relative potency) in the TNF-α inhibition assay” value in data set [2] is reported as “comparable activity”; in data set [2] (listed as M-2), “active”. Further, the “activity (relative potency) in the ROS inhibition assay” value was “comparable activity” in data set [3] and “active” in data set [3] (listed as M-2). For the same molecule, the “IFN-gamma IC50 values compared with Compounds 400 and 401” value is listed as “slightly higher” in data set [4] (one donor) and “very similar” in data set [4] (second donor).
On to `CC(=O)CCCCn1c(=O)c2c(ncn2C)n(C)c1=O` [Compound 400, 1-(5-oxohexyl)-3,7-dimethylxanthine], for which the IC50 in data set [1] (Donor 1) worked out at 80 µM; in data set [1] (Donor 2), 80 µM; in data set [4] (Donor I), 78 µM; in data set [4] (Donor II) it was 63 µM. Also, the “time to peak plasma levels” value in data set [5] was “within one hour”. Besides, the “activity (relative potency) in the TNF-α inhibition assay” value in data set [2] is “comparable activity”. Also, the “activity (relative potency) in the ROS inhibition assay” value in data set [3] is “comparable activity”.
Regarding `CC(O)C(O)CCCn1c(=O)c2c(ncn2C)n(C)c1=O` (stereo not drawn) [Compound M-3], the “activity (relative potency) in the TNF-α inhibition assay” value in data set [2] is recorded as “significantly lower activity”. Also, the “activity (relative potency) in the ROS inhibition assay” value in data set [3] is “significantly lower activity”.
`Cn1cnc2c1c(=O)n(CCCCC(=O)O)c(=O)n2C` [Compound M-4]: in data set [2], the “activity (relative potency) in the TNF-α inhibition assay” value is “significantly lower activity”. Further, the “activity (relative potency) in the ROS inhibition assay” value in data set [3] is recorded as “significantly lower activity”.
In the case of `Cn1cnc2c1c(=O)n(CCCC(=O)O)c(=O)n2C` [Compound M-5], the “activity (relative potency) in the TNF-α inhibition assay” value in data set [2] is recorded as “significantly lower activity”. In addition, in data set [3], the “activity (relative potency) in the ROS inhibition assay” value is given as “significantly lower activity”.
